The text below walks through data of patent US9150577B2, “Heterocyclic compounds containing an indole core” (Boehringer Ingelheim International GmbH, priority 2009, dated 2015).

Sequence of Human RSK2 (P51812 whole entry): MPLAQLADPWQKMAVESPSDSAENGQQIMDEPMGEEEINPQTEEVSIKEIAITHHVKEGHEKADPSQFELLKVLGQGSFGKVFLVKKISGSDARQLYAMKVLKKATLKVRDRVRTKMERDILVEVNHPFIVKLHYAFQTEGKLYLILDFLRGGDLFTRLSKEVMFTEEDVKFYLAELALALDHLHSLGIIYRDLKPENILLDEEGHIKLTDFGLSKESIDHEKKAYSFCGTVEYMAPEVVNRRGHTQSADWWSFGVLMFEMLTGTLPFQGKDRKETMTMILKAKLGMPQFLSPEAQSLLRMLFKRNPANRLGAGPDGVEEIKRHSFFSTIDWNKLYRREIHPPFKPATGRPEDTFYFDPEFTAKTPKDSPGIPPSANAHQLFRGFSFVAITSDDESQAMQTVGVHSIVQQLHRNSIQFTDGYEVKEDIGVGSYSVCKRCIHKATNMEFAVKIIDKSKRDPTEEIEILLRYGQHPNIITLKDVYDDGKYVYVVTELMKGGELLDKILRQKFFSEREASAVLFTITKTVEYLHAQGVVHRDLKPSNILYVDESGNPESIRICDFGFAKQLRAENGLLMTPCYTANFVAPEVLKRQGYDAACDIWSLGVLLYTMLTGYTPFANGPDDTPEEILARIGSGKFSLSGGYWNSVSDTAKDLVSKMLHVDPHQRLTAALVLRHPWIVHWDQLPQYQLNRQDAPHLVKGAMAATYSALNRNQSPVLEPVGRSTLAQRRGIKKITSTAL

This assay concerns the target Human RSK2 (Homo sapiens (Human), UniProt P51812). As to the kind of experiment: Human RSK2 assay (Kinase Glo Plus, residual ATP).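 Further: recombinant human RSK2 phosphorylating a substrate peptide, 90 min at 28 °C, leftover ATP read by luminescence, RLU scaled between no-kinase background and uninhibited kinase controls, 4-parameter fit.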 The class given is biochemical. A general note: Kinase-Glo measures the ATP left after a reaction by luminescence.
For the compound `CC1CNC(=O)c2cc3ccc(C(=O)Nc4nc5ccccc5[nH]4)cc3n21` (centres unmarked) [Example 57, N-(1H-benzimidazol-2-yl)-4-methyl-1-oxo-1,2,3,4-tetrahydropyrazino[1,2-a]indole-7-carboxamide], the IC50 is 0.59 nM. For `O=C(Nc1nc2ccccc2n1C1CCCC1)c1ccc2cc3n(c2c1)CCCNC3=O` [Example 75, N-(1-cyclopentyl-1H-benzimidazol-2-yl)-1-oxo-2,3,4,5-tetrahydro-1H-[1,4]diazepino[1,2-a]indole-8-carboxamide], the IC50 is 25 nM. As for `O=C(Nc1cccnc1)c1ccc2cc3n(c2c1)CC(F)(F)CNC3=O` [Example 152, 4,4-difluoro-1-oxo-N-(pyridin-3-yl)-2,3,4,5-tetrahydro-1H-[1,4]diazepino[1,2-a]indole-8-carboxamide], the IC50 came to 1700 nM. Under `CC(C)(CO)n1c(NC(=O)c2ccc3cc4n(c3c2)CCCNC4=O)nc2ccccc21` [Example 66, N-[1-(1-hydroxy-2-methylpropan-2-yl)-1H-benzimidazol-2-yl]-1-oxo-2,3,4,5-tetrahydro-1H-[1,4]diazepino[1,2-a]indole-8-carboxamide] stands 610 nM; under `Cc1ccc(-c2cc(NC(=O)c3ccc4cc5n(c4c3)CCCNC5=O)on2)cc1` [Example 199, N-[3-(4-methylphenyl)-1,2-oxazol-5-yl]-1-oxo-2,3,4,5-tetrahydro-1H-[1,4]diazepino[1,2-a]indole-8-carboxamide], 115 nM; under `CC(C)CCn1cc(NC(=O)c2ccc3cc4n(c3c2)CCCNC4=O)cn1` [Example 35, N-[1-(3-methylbutyl)-1H-pyrazol-4-yl]-1-oxo-2,3,4,5-tetrahydro-1H-[1,4]diazepino[1,2-a]indole-8-carboxamide], 11 nM. As to `CC(C)n1c(NC(=O)c2ccc3cc4n(c3c2)C(C)CNC4=O)nc2ccccc21` (centres unmarked) [Example 74, 4-methyl-1-oxo-N-[1-(propan-2-yl)-1H-benzimidazol-2-yl]-1,2,3,4-tetrahydropyrazino[1,2-a]indole-7-carboxamide], the IC50 was determined as 7.3 nM. The value for `CC(C)n1c(NC(=O)c2ccc3cc4n(c3c2)[C@H](C)CNC4=O)nc2ccccc21` [Example 68, (4R)-4-methyl-1-oxo-N-[1-(propan-2-yl)-1H-benzimidazol-2-yl]-1,2,3,4-tetrahydropyrazino[1,2-a]indole-7-carboxamide] was 1.9 nM; that for `Cc1cc(NC(=O)c2ccc3cc4n(c3c2)C(C)CNC4=O)no1` (centres unmarked) [Example 174, 4-methyl-N-(5-methyl-1,2-oxazol-3-yl)-1-oxo-1,2,3,4-tetrahydropyrazino[1,2-a]indole-7-carboxamide] was 34 nM. Under `Cc1nc2ccc(NC(=O)c3ccc4cc5n(c4c3)CCCNC5=O)cc2s1` [Example 205, N-(2-methyl-1,3-benzothiazol-6-yl)-1-oxo-2,3,4,5-tetrahydro-1H-[1,4]diazepino[1,2-a]indole-8-carboxamide] stands 10 nM; under `Cn1cc(NC(=O)c2ccc3cc4n(c3c2)CCCNC4=O)ccc1=O` [Example 116, N-(1-methyl-6-oxo-1,6-dihydropyridin-3-yl)-1-oxo-2,3,4,5-tetrahydro-1H-[1,4]diazepino[1,2-a]indole-8-carboxamide], 110 nM; under `COc1ccc(NC(=O)c2ccc3cc4n(c3c2)CCCNC4=O)cc1` [Example 149, N-(4-methoxyphenyl)-1-oxo-2,3,4,5-tetrahydro-1H-[1,4]diazepino[1,2-a]indole-8-carboxamide], 110 nM.

Turning to `O=C(Nc1nc2ccccc2n1CCc1ccccn1)c1ccc2cc3n(c2c1)CCCNC3=O` [Example 89, 1-oxo-N-{1-[2-(pyridin-2-yl)ethyl]-1H-benzimidazol-2-yl}-2,3,4,5-tetrahydro-1H-[1,4]diazepino[1,2-a]indole-8-carboxamide], the IC50 was found to be 22 nM. The value for `CC1CCNC(=O)c2cc3ccc(C(=O)Nc4cc(C(C)(C)C)on4)cc3n21` (centres unmarked) [Example 160, N-(5-tert-butyl-1,2-oxazol-3-yl)-5-methyl-1-oxo-2,3,4,5-tetrahydro-1H-[1,4]diazepino[1,2-a]indole-8-carboxamide] was 32 nM.

Usually IC50 stands for the point on the concentration scale where inhibition reaches its midpoint.
